Where two headings read alike, the source gives them in different places. Where a SMILES comes first, the peptide text is derived from it. Where no end group is shown, it is not given here. [ ]: non-standard residue; d: D form. The star is where a group is joined. Biotin = O=C1N[C@H]2[C@H](CS[C@H]2CCCCC(=O)*)N1; PEG10 = NCCOCCOCCOCCOCCOCCOCCOCCOCCOCCOCCC(=O)O
How the values were obtained:
[1] = biological target: demineralized bone matrix (DBM); assay: Biotinylated peptide binding to demineralized bone matrix (ELISA-type, streptavidin-alkaline phosphatase/pNPP); design: species or system human
Procedure: Relative binding strengths of the peptides to bone, also used as a measure of binding specificity, were determined by testing serial dilutions of the peptide for binding to bone, as represented by DBM. Plotting the absorbance observed across the concentration range for each peptide sequence yielded a binding curve of the peptides to its target substrate from which can be determined an EC50. The goal of the screenings and selections was to identify one or more peptides that bind to the selected substrate with binding specificity, with an EC50 of less than or equal to about 10 μM, and for some embodiments, in the nanomolar range (<1 μM).
As a specific example, DBM was placed in a microtiter plate at a concentration of 3 mg equivalents per well, and then the wells were blocked with buffer containing 1% BSA for 1 hour at room temperature. The buffer containing 1% BSA was then aspirated from each well, and added to the wells were the serial dilutions of biotinylated peptide. The microtiter plates were incubated for 1 hour at room temperature on a plate shaker. The DBM was then allowed to settle, and the buffer was then aspirated from the wells. The DBM was washed three times with buffer-T, and then streptavidin-alkaline phosphatase was added. The microtiter plates were incubated for 1 hour at room temperature on a plate shaker. The DBM was then allowed to settle, and the buffer was then aspirated from the wells. The DBM was washed three times with buffer-T, pNPP (p-nitrophenyl phosphate) was used to develop the assay, and the absorbance was recorded at 405 nm. An estimate of the relative affinity (binding specificity, EC50) of a peptide for bone can be made by determining the concentration of peptide that gives one-half the maximal signal in the assay.
Example 1 illustrates methods to determine the relative binding strengths of peptide to bone. […] A biotin molecule was linked to the C-terminal lysine. Also shown in Table 3 are the relative binding strengths expressed as EC50 (μM) to bone as represented by DBM of human origin. It is noted that the EC50 values were the same or substantially similar when DBM of rabbit origin was used.
Relative binding strength embodiments of the compositions to bone, also used as a measure of binding specificity, were determined by testing serial dilutions of the composition for binding to bone, as described in Example 1 Section B. Plotting the absorbance observed across the concentration range for each composition yielded a binding curve and rough dissociation constant of the composition for bone. Similar to a peptide having binding specificity for bone from which the composition is made, one property of the composition embodiments is that they bind to bone with binding specificity as measured by an EC50 of less than or equal to about 10 μM, and for some embodiments, in the nanomolar range (<1 μM). Using the methods outlined in Example 1B herein, assayed were the relative binding strengths of […] illustrative composition embodiments which include the amino acid sequences shown in SEQ ID NOs: 137, 138, 139, 140, 141 & 142, see Table 7, and synthesized to include a C-terminal amino linker which was biotinylated to facilitate determination of the relative binding strengths to bone. Shown in Table 8 are the relative binding strengths of composition embodiments to bone, as represented by DBM, expressed as EC50 (in μM).

[2] = biological target: demineralized cortical bone (DCB); assay: Biotinylated peptide binding to demineralized cortical bone
Procedure: (§1) Relative binding strengths of the peptides to bone, also used as a measure of binding specificity, were determined by testing serial dilutions of the peptide for binding to bone, as represented by DBM. Plotting the absorbance observed across the concentration range for each peptide sequence yielded a binding curve of the peptides to its target substrate from which can be determined an EC50. The goal of the screenings and selections was to identify one or more peptides that bind to the selected substrate with binding specificity, with an EC50 of less than or equal to about 10 μM, and for some embodiments, in the nanomolar range (<1 μM). […] As a specific example, DBM was placed in a microtiter plate at a concentration of 3 mg equivalents per well, and then the wells were blocked with buffer containing 1% BSA for 1 hour at room temperature. The buffer containing 1% BSA was then aspirated from each well, and added to the wells were the serial dilutions of biotinylated peptide. The microtiter plates were incubated for 1 hour at room temperature on a plate shaker. The DBM was then allowed to settle, and the buffer was then aspirated from the wells. The DBM was washed three times with buffer-T, and then streptavidin-alkaline phosphatase was added. The microtiter plates were incubated for 1 hour at room temperature on a plate shaker. The DBM was then allowed to settle, and the buffer was then aspirated from the wells. The DBM was washed three times with buffer-T, pNPP (p-nitrophenyl phosphate) was used to develop the assay, and the absorbance was recorded at 405 nm. An estimate of the relative affinity (binding specificity, EC50) of a peptide for bone can be made by determining the concentration of peptide that gives one-half the maximal signal in the assay. Using the methodology illustrated in Example 1, the peptides illustrated in Table 3 were also tested for relative binding strength to demineralized cortical bone, and to cancellous bone, additional evidence of binding specificity for bone.

cancellous bone (CNB) = assay: Biotinylated peptide binding to cancellous bone
Procedure: as §1

[3] = bone as represented by DBM, biotinylated composition, read-out: Binding specificity for bone EC50 (compositions X1-J-X2)
[4] = DBM of human origin, biotinylated peptide, read-out: Binding specificity for bone (e.g., DBM) EC50
[5] = demineralized bone matrix, read-out: EC50 (μM) for DBM

| Compound | EC50 [1, 3] [µM] | EC50 [1, 4] [µM] | EC50 [1, 5] [µM] | EC50 [2] [µM] | EC50 (cancellous bone (CNB)) [µM] |
| --- | --- | --- | --- | --- | --- |
| SWWGFWNGSAAPVWSRGSSESAGAWEAFSSLSGSRVGSSGK(Biotin) [compound 137] | < 0.5 |  |  |  |  |
| CC(C)C[C@H](NC(=O)[C@H](CO)NC(=O)[C@H](CO)NC(=O)[C@H](Cc1ccccc1)NC(=O)[C@H](C)NC(=O)[C@H](CCC(=O)O)NC(=O)[C@H](Cc1c[nH]c2ccccc12)NC(=O)[C@H](C)NC(=O)CNC(=O)[C@H](C)NC(=O)CNC(=O)[C@H](CO)NC(=O)[C@H](CO)NC(=O)CNC(=O)[C@H](CCCNC(=N)N)NC(=O)[C@H](CO)NC(=O)[C@H](Cc1c[nH]c2ccccc12)NC(=O)[C@@H](NC(=O)[C@@H]1CCCN1C(=O)[C@H](C)NC(=O)[C@H](C)NC(=O)[C@H](CO)NC(=O)CNC(=O)[C@H](CC(N)=O)NC(=O)[C@H](Cc1c[nH]c2ccccc12)NC(=O)[C@H](Cc1ccccc1)NC(=O)CNC(=O)[C@H](Cc1c[nH]c2ccccc12)NC(=O)[C@H](Cc1c[nH]c2ccccc12)NC(=O)[C@@H](N)CO)C(C)C)C(=O)N[C@@H](CO)C(=O)NCC(=O)N[C@@H](CO)C(=O)N[C@@H](CCCNC(=N)N)C(=O)N[C@H](C(=O)NCC(=O)N[C@@H](CO)C(=O)N[C@@H](CO)C(=O)NCC(=O)N[C@@H](CCCCNC(=O)CCCC[C@@H]1SC[C@@H]2NC(=O)N[C@@H]21)C(=O)O)C(C)C [compound 138] (H-SWWGFWNGSAAPVWSRGSSGAGAWEAFSSLSGSRVGSSGK(Biotin)-OH; N-terminus and C-terminus assumed) | < 0.1 |  |  |  |  |
| CC[C@H](C)[C@H](NC(=O)[C@H](CC(=O)O)NC(=O)[C@H](Cc1ccccc1)NC(=O)[C@@H](N)CO)C(=O)N[C@@H](CC(=O)O)C(=O)N[C@@H](Cc1c[nH]c2ccccc12)C(=O)N[C@@H](CO)C(=O)NCC(=O)N[C@@H](CCSC)C(=O)N[C@@H](CCCNC(=N)N)C(=O)N[C@@H](CO)C(=O)N[C@@H](Cc1c[nH]c2ccccc12)C(=O)N[C@@H](Cc1c[nH]c2ccccc12)C(=O)NCC(=O)N[C@@H](CO)C(=O)N[C@@H](CCCNC(=N)N)C(=O)NCC(=O)N[C@@H](CO)C(=O)N[C@@H](CO)C(=O)NCC(=O)N[C@@H](CCCCNC(=O)CCCC[C@@H]1SC[C@@H]2NC(=O)N[C@@H]21)C(=O)O [compound 44] (H-SFDIDWSGMRSWWGSRGSSGK(Biotin)-OH) |  | < 1 | < 1 | < 1 | < 1 |
| CC(C)C[C@H](NC(=O)[C@@H](N)CO)C(=O)NCC(=O)N[C@H](C(=O)N[C@@H](Cc1ccccc1)C(=O)N[C@@H](Cc1c[nH]c2ccccc12)C(=O)N[C@@H](CO)C(=O)N[C@@H](CO)C(=O)N[C@H](C(=O)N[C@@H](Cc1c[nH]c2ccccc12)C(=O)N[C@@H](CCCNC(=N)N)C(=O)NCC(=O)N[C@H](C(=O)N[C@@H](CC(=O)O)C(=O)N[C@@H](C)C(=O)NCC(=O)NCC(=O)N[C@@H](CCC(=O)O)C(=O)N[C@@H](CO)C(=O)N[C@@H](CCCNC(=N)N)C(=O)NCC(=O)N[C@@H](CO)C(=O)N[C@@H](CO)C(=O)NCC(=O)N[C@@H](CCCCNC(=O)CCCC[C@@H]1SC[C@@H]2NC(=O)N[C@@H]21)C(=O)O)C(C)C)C(C)C)[C@@H](C)O [compound 43] (H-SLGTFWSSVWRGVDAGGESRGSSGK(Biotin)-OH) |  | < 1 | < 1 | < 1 | ≤ 1 |
| CC(C)C[C@H](NC(=O)[C@H](CO)NC(=O)[C@H](CCCNC(=N)N)NC(=O)[C@H](Cc1ccccc1)NC(=O)[C@H](CC(=O)O)NC(=O)[C@H](Cc1c[nH]c2ccccc12)NC(=O)[C@@H](N)CO)C(=O)N[C@@H](CCCNC(=N)N)C(=O)N[C@@H](CC(=O)O)C(=O)N[C@@H](Cc1c[nH]c2ccccc12)C(=O)N[C@@H](Cc1c[nH]c2ccccc12)C(=O)N1CCC[C@H]1C(=O)N1CCC[C@H]1C(=O)N[C@@H](C)C(=O)N1CCC[C@H]1C(=O)N[C@@H](CO)C(=O)N[C@@H](CC(C)C)C(=O)N[C@@H](CO)C(=O)N[C@@H](CO)C(=O)N[C@@H](CCCNC(=N)N)C(=O)NCC(=O)N[C@@H](CO)C(=O)N[C@@H](CO)C(=O)NCC(=O)N[C@@H](CCCCNC(=O)CCCC[C@@H]1SC[C@@H]2NC(=O)N[C@@H]21)C(=O)O [compound 45] (H-SWDFRSLRDWWPPAPSLSSRGSSGK(Biotin)-OH) |  | < 1 | < 1 | < 1 | < 1 |
| CC(C)C[C@H](NC(=O)[C@H](CO)NC(=O)[C@H](CO)NC(=O)[C@H](Cc1ccccc1)NC(=O)[C@H](C)NC(=O)[C@H](CCC(=O)O)NC(=O)[C@H](Cc1c[nH]c2ccccc12)NC(=O)[C@H](C)NC(=O)CNC(=O)CNC(=O)CNC(=O)CCOCCOCCOCCOCCOCCOCCOCCOCCOCCOCCNC(=O)CNC(=O)[C@H](CCCNC(=N)N)NC(=O)[C@H](CO)NC(=O)[C@H](CO)NC(=O)[C@H](C)NC(=O)[C@H](C)NC(=O)CNC(=O)[C@H](CO)NC(=O)CNC(=O)[C@H](Cc1c[nH]c2ccccc12)NC(=O)[C@H](Cc1c[nH]c2ccccc12)NC(=O)[C@H](Cc1c[nH]c2ccccc12)NC(=O)[C@H](CO)NC(=O)CNC(=O)[C@H](Cc1ccccc1)NC(=O)[C@@H](N)CO)C(=O)N[C@@H](CO)C(=O)NCC(=O)N[C@@H](CO)C(=O)N[C@@H](CCCNC(=N)N)C(=O)N[C@H](C(=O)NCC(=O)N[C@@H](CO)C(=O)N[C@@H](CO)C(=O)NCC(=O)N[C@@H](CCCCNC(=O)CCCC[C@@H]1SC[C@@H]2NC(=O)N[C@@H]21)C(N)=O)C(C)C [compound 141] (H-SFGSWWWGSGAASSRG[PEG10]GGGAWEAFSSLSGSRVGSSGK(Biotin)-NH2; N-terminus and C-terminus assumed) | < 0.5 |  |  |  |  |
| SWWGFWNGSAAPVWSRGSSGAGALGFPLKGEVVEGWAGSSGK(Biotin) [compound 139] | < 0.5 |  |  |  |  |
| CC(C)C[C@H](NC(=O)[C@H](CO)NC(=O)[C@H](CO)NC(=O)[C@H](Cc1ccccc1)NC(=O)[C@H](C)NC(=O)[C@H](CCC(=O)O)NC(=O)[C@H](Cc1c[nH]c2ccccc12)NC(=O)[C@H](C)NC(=O)CNC(=O)[C@H](C)NC(=O)CCOCCOCCOCCOCCOCCOCCOCCOCCOCCOCCNC(=O)CNC(=O)[C@H](CCCNC(=N)N)NC(=O)[C@H](CO)NC(=O)[C@H](CO)NC(=O)[C@H](C)NC(=O)[C@H](C)NC(=O)CNC(=O)[C@H](CO)NC(=O)CNC(=O)[C@H](Cc1c[nH]c2ccccc12)NC(=O)[C@H](Cc1c[nH]c2ccccc12)NC(=O)[C@H](Cc1c[nH]c2ccccc12)NC(=O)[C@H](CO)NC(=O)CNC(=O)[C@H](Cc1ccccc1)NC(=O)[C@@H](N)CO)C(=O)N[C@@H](CO)C(=O)NCC(=O)N[C@@H](CO)C(=O)N[C@@H](CCCNC(=N)N)C(=O)N[C@H](C(=O)NCC(=O)N[C@@H](CO)C(=O)N[C@@H](CO)C(=O)NCC(=O)N[C@@H](CCCCNC(=O)CCCC[C@@H]1SC[C@@H]2NC(=O)N[C@@H]21)C(N)=O)C(C)C [compound 142] (H-SFGSWWWGSGAASSRG[PEG10]AGAWEAFSSLSGSRVGSSGK(Biotin)-NH2; N-terminus and C-terminus assumed) | < 0.5 |  |  |  |  |
| SFGSWWWGSGAASSRGSSGGGALGFPLKGEVVEGWAGSSGK(Biotin) [compound 140] | < 0.5 |  |  |  |  |

— patent publication US7977313B2, “Methods and compositions for promoting localization of pharmaceutically active agents to bone” (Affinergy, Inc., priority 2007, dated 2011)
